In the NIST ThermoML archive (doi:10.1016/j.jct.2007.05.015):
± gives the expanded uncertainty stated by the source.

Columns and labels:
[1] = 298.15 K; 101 kPa; Liquid
[2] = xn = mol fraction of the nth substance listed; settings: 298.15 K, 101 kPa, Liquid

O=C1CCCN1 [2-pyrrolidinone]
mass density [1]: 1107.52 ± 1.4 kg/m3 | speed of sound [1]: 1633.7 ± 6.4 m/s

CC(=O)N(C)C [N,N-dimethylethanamide]
mass density [1]: 936.34 ± 1.8 kg/m3 | speed of sound [1]: 1455.9 ± 5.8 m/s

CNC=O [N-methylformamide]
mass density [1]: 999.06 ± 0.7 kg/m3 | speed of sound [1]: 1431.9 ± 3.4 m/s

CN1CCCC1=O [N-methylpyrrolidone]
mass density [1]: 1028.23 ± 0.88 kg/m3 | speed of sound [1]: 1531.5 ± 6.1 m/s

CN(C)C=O [dimethylformamide]
mass density [1]: 943.94 ± 0.85 kg/m3 | speed of sound [1]: 1457.5 ± 5.8 m/s

NC=O [formamide]
mass density [1]: 1128.78 ± 1.6 kg/m3 | speed of sound [1]: 1597.3 ± 3.6 m/s

NC=O [formamide] + O
mass density ([2]; x1 = 0.01258): 1001.58 ± 0.51 kg/m3 | speed of sound ([2]; x1 = 0.01258): 1507 ± 3.4 m/s | mass density ([2]; x1 = 0.01991): 1004.13 ± 0.52 kg/m3 | speed of sound ([2]; x1 = 0.01991): 1512.2 ± 3.4 m/s | mass density ([2]; x1 = 0.0361): 1009.48 ± 0.56 kg/m3 | speed of sound ([2]; x1 = 0.0361): 1522.8 ± 3.4 m/s | mass density ([2]; x1 = 0.05028): 1013.93 ± 0.59 kg/m3 | speed of sound ([2]; x1 = 0.05028): 1530.9 ± 3.4 m/s | mass density ([2]; x1 = 0.06473): 1018.25 ± 0.62 kg/m3 | speed of sound ([2]; x1 = 0.06473): 1538.3 ± 3.4 m/s | mass density ([2]; x1 = 0.07977): 1022.53 ± 0.64 kg/m3 | speed of sound ([2]; x1 = 0.07977): 1545.1 ± 3.4 m/s | mass density ([2]; x1 = 0.09437): 1026.49 ± 0.67 kg/m3 | speed of sound ([2]; x1 = 0.09437): 1551 ± 3.4 m/s | mass density ([2]; x1 = 0.1125): 1031.16 ± 0.7 kg/m3 | speed of sound ([2]; x1 = 0.1125): 1557.5 ± 3.4 m/s | mass density ([2]; x1 = 0.1347): 1036.54 ± 0.74 kg/m3 | speed of sound ([2]; x1 = 0.1347): 1564.5 ± 3.4 m/s | mass density ([2]; x1 = 0.1596): 1042.19 ± 0.77 kg/m3 | speed of sound ([2]; x1 = 0.1596): 1571 ± 3.4 m/s | mass density ([2]; x1 = 0.1946): 1049.41 ± 0.82 kg/m3 | speed of sound ([2]; x1 = 0.1946): 1578.3 ± 3.5 m/s | mass density ([2]; x1 = 0.2295): 1056.08 ± 0.87 kg/m3 | speed of sound ([2]; x1 = 0.2295): 1584.1 ± 3.5 m/s | mass density ([2]; x1 = 0.2548): 1060.55 ± 0.9 kg/m3 | speed of sound ([2]; x1 = 0.2548): 1587.5 ± 3.5 m/s | mass density ([2]; x1 = 0.2731): 1063.6 ± 0.92 kg/m3 | speed of sound ([2]; x1 = 0.2731): 1589.5 ± 3.5 m/s | mass density ([2]; x1 = 0.2919): 1066.61 ± 0.94 kg/m3 | speed of sound ([2]; x1 = 0.2919): 1591.4 ± 3.5 m/s | mass density ([2]; x1 = 0.3343): 1072.9 ± 0.99 kg/m3 | speed of sound ([2]; x1 = 0.3343): 1594.7 ± 3.5 m/s | mass density ([2]; x1 = 0.3711): 1077.91 ± 1 kg/m3 | speed of sound ([2]; x1 = 0.3711): 1596.7 ± 3.5 m/s | mass density ([2]; x1 = 0.4046): 1082.13 ± 1.1 kg/m3 | speed of sound ([2]; x1 = 0.4046): 1598.1 ± 3.5 m/s | mass density ([2]; x1 = 0.4552): 1088.06 ± 1.1 kg/m3 | speed of sound ([2]; x1 = 0.4552): 1599.4 ± 3.5 m/s | mass density ([2]; x1 = 0.4884): 1091.6 ± 1.1 kg/m3 | speed of sound ([2]; x1 = 0.4884): 1600 ± 3.5 m/s | mass density ([2]; x1 = 0.5025): 1093.05 ± 1.1 kg/m3 | speed of sound ([2]; x1 = 0.5025): 1600.2 ± 3.5 m/s | mass density ([2]; x1 = 0.5225): 1094.97 ± 1.2 kg/m3 | speed of sound ([2]; x1 = 0.5225): 1600.3 ± 3.5 m/s | mass density ([2]; x1 = 0.5564): 1098.27 ± 1.2 kg/m3 | speed of sound ([2]; x1 = 0.5564): 1600.5 ± 3.5 m/s | mass density ([2]; x1 = 0.595): 1101.68 ± 1.2 kg/m3 | speed of sound ([2]; x1 = 0.595): 1600.5 ± 3.5 m/s | mass density ([2]; x1 = 0.6298): 1104.65 ± 1.3 kg/m3 | speed of sound ([2]; x1 = 0.6298): 1600.5 ± 3.5 m/s | mass density ([2]; x1 = 0.6714): 1107.95 ± 1.3 kg/m3 | speed of sound ([2]; x1 = 0.6714): 1600.2 ± 3.5 m/s | mass density ([2]; x1 = 0.702): 1110.28 ± 1.3 kg/m3 | speed of sound ([2]; x1 = 0.702): 1600 ± 3.5 m/s | mass density ([2]; x1 = 0.723): 1111.82 ± 1.3 kg/m3 | speed of sound ([2]; x1 = 0.723): 1599.8 ± 3.5 m/s | mass density ([2]; x1 = 0.7544): 1113.99 ± 1.4 kg/m3 | speed of sound ([2]; x1 = 0.7544): 1599.6 ± 3.5 m/s | mass density ([2]; x1 = 0.78): 1115.76 ± 1.4 kg/m3 | speed of sound ([2]; x1 = 0.78): 1599.4 ± 3.6 m/s | mass density ([2]; x1 = 0.8094): 1117.67 ± 1.4 kg/m3 | speed of sound ([2]; x1 = 0.8094): 1599.1 ± 3.6 m/s | mass density ([2]; x1 = 0.8358): 1119.42 ± 1.4 kg/m3 | speed of sound ([2]; x1 = 0.8358): 1598.8 ± 3.6 m/s | mass density ([2]; x1 = 0.8752): 1121.79 ± 1.4 kg/m3 | speed of sound ([2]; x1 = 0.8752): 1598.6 ± 3.6 m/s | mass density ([2]; x1 = 0.917): 1124.23 ± 1.5 kg/m3 | speed of sound ([2]; x1 = 0.917): 1598.2 ± 3.6 m/s | mass density ([2]; x1 = 0.9465): 1125.98 ± 1.5 kg/m3 | speed of sound ([2]; x1 = 0.9465): 1598 ± 3.6 m/s | mass density ([2]; x1 = 0.9702): 1127.29 ± 1.5 kg/m3 | speed of sound ([2]; x1 = 0.9702): 1597.9 ± 3.6 m/s | mass density ([2]; x1 = 1): 1128.78 ± 1.6 kg/m3 | speed of sound ([2]; x1 = 1): 1597.3 ± 3.6 m/s
